The results in this text go back to patent publication US9561201B2, “Therapeutic compounds” (Fibrotech Therapeutics Pty Ltd, priority 2006, dated 2017).

Each structure is given as a SMILES string.

The subject of data set [1] is rat mesangial cell line. As to the kind of experiment: TGF-β stimulated 3H-proline incorporation in mesangial cells (Example 5). The settings on record: for Collagen synthesis: inhibition ranked against tranilast (T) or FT11. The data set is classed as cell-based. As to the method:
(§1) A well-characterized cloned rat mesangial cell line (gift of D Nikolic-Patterson) is cultured in DMEM with FBS, 100 U/mL penicillin, and 100 ug/mL streptomycin in a humidified 5% CO2 atmosphere at 37° C. Cells are plated into 24-well culture dishes in DMEM/10% FBS at low density and allowed to adhere overnight. Cells are used between passages 20 and 40. The subconfluent cells are starved overnight in DMEM/0.1% FBS containing 150 uM L-ascorbic acid, prior to 4 hours of pre-treatment with or without tranilast or the FT compounds, followed by the addition of 5 ng/mL rhTGF-β11 (R&D Systems) and 1 uCi/mL of L-(2,3,4,5-^3H)-proline. Control wells have the compounds but no TGF-β1 added. Cells are incubated for a further 44 hours during which time their appearance is visually monitored. The cells are then washed three times in ice-cold PBS, twice in ice cold 10% TCA and solubilized in 750 uL 1M NaOH for 45 minutes at 37° C. or overnight at 4° C. A 500 uL aliquot is neutralized with 500 uL 1M HCl and 10 mL scintillation fluid (Instagel Plus-Perkin-Elmer) added. Counts are performed on a beta counter.
To normalize the proline incorporation counts to take into account the proliferative effects of TGF-β1, a BioRad protein assay is performed on a 100-150 uL aliquot of the remaining solubilized cells. The sample is neutralized with an equal amount of 1M HCl prior to the assay. The BSA standards used to construct the standard curve have the same amount of 1M NaOH and 1M HCl added as is present in the samples for assay.
Proline incorporation is expressed as cpm/ug protein. In order to compare inter-assay results, the incorporation is expressed as percentage reduction of TGF stimulated proline incorporation, where TGF alone gives 0% reduction and the zero control gives 100% reduction.

The test system of data set [2] is rat mesangial cell line. As to the kind of experiment: Effect on mesangial cell appearance (visual monitoring during proline assay). The class given is cell-based. As to the method:
as §1
Compounds in Bold have Minimal Effect on Cell Appearance and Viability

[3] abbreviates: Rattus norvegicus, Mesangial cell, @ 30 μM, 5 ng/mL TGF-β1, 44 h, read-out: Mesangial Cell Assay TGF-β % reduction of TGF-β stimulation_proline inc.
The mark [4] stands for this setting: Rattus norvegicus, Mesangial cell, 5 ng/mL TGF-β1, 44 h, read-out: Mesangial Cell Assay TGF-β % reduction of TGF-β stimulation_proline inc.
The mark [5] stands for this setting: Rattus norvegicus, Mesangial cell, @ 10 μM, 5 ng/mL TGF-β1, 44 h, read-out: Mesangial Cell Assay TGF-β % reduction of TGF-β stimulation_proline inc.

As for `COc1ccc(/C=C/C(=O)Nc2ccccc2C(=O)O)cc1OC` [Analogue 1, (E)-2-[[3-(3,4-Dimethoxyphenyl)-1-oxo-2-propenyl]amino]benzoic acid], the inhibition at 30 µM in the data set on rat mesangial cell line [1] (setting [3]) fell in the range of 20 to 50%. For the same molecule, the inhibition at 100 µM with rat mesangial cell line [1] (setting [4]) lay in the range of 50 to 70%. In addition, the Collagen synthesis entry in the data set with rat mesangial cell line [1] was “=T”. Further, the “Effect on mesangial cell appearance” value with rat mesangial cell line [2] (@ 100 μM) was “stress @”.

Take `O=C(/C=C/c1ccccc1)Nc1ccccc1C(=O)O` [Analogue 2, (E)-2-[(1-Oxo-3-phenyl-2-propenyl)amino]benzoic acid]: the melting point was in the range of 188 to 189 °C. Also, the Collagen synthesis result in the data set on rat mesangial cell line [1] is reported as “<<T”.

For `COc1ccc(/C=C/C(=O)Nc2ccccc2C(=O)O)cc1` [Analogue 3, (E)-2-[[3-(4-Methoxyphenyl)-1-oxo-2-propenyl]amino]benzoic acid], in the data set on rat mesangial cell line [1], the Collagen synthesis result is given as “<<T”.

As for `COc1cccc(/C=C/C(=O)Nc2ccccc2C(=O)O)c1` [Analogue 4, (E)-2-[[3-(3-Methoxyphenyl)-1-oxo-2-propenyl]amino]benzoic acid], the melting point was in the range of 183 to 184 °C. The Collagen synthesis result in the data set with rat mesangial cell line [1] is reported as “<<T”.

`O=C(/C=C/c1ccc(O)c(O)c1)Nc1ccccc1C(=O)O` [Analogue 5, (E)-2-[[3-(3,4-Dihydroxyphenyl)-1-oxo-2-propenyl]amino]benzoic acid] showed a melting point of 204 to 206 °C. The Collagen synthesis entry in the data set on rat mesangial cell line [1] is on record as “May be toxic”. In addition, the “Effect on mesangial cell appearance” value with rat mesangial cell line [2] (no concentration stated) is “Cells looking”.

Consider `COc1cc(/C=C/C(=O)Nc2ccccc2C(=O)O)ccc1O` [Analogue 6, (E)-2-[[3-(4-Hydroxy-3-methoxyphenyl)-1-oxo-2-propenyl]amino]benzoic acid], for which the melting point was in the range of 207.5 to 208.5 °C. The inhibition at 10 µM in the data set on rat mesangial cell line [1] (setting [5]) came to 20%. For the same molecule, the inhibition at 50 µM with rat mesangial cell line [1] (Rattus norvegicus, Mesangial cell, @ 50 μM, 5 ng/mL TGF-β1, 44 h, read-out: Mesangial Cell Assay TGF-β % reduction of TGF-β stimulation_proline inc.) turned out to be 45%. For the same molecule, in the data set with rat mesangial cell line [1], the Collagen synthesis entry was “<=T”.

Consider `COc1ccc(/C=C/C(=O)Nc2cc(OC)c(OC)cc2C(=O)O)cc1OC` [Analogue 9, (E)-2-[[3-(3,4-Dimethoxyphenyl)-1-oxo-2-propenyl]amino]-4,5-dimethoxybenzoic acid], for which the melting point lay in the range of 236 to 239 °C. Further, the Collagen synthesis result with rat mesangial cell line [1] is given as “<<T”.

`COc1ccc(CCC(=O)Nc2ccccc2C(=O)O)cc1OC` [Analogue 10, 2-[[3-(3,4-Dimethoxyphenyl)-1-oxopropyl]amino]benzoic acid] yielded a melting point of 137 °C. Also, the Collagen synthesis result in the data set on rat mesangial cell line [1] is on record as “<<T”.

With `COc1ccc(/C=C/C(=O)Nc2ccccc2C(N)=O)cc1OC` [Analogue 12, (E)-2-[[3-(3,4-Dimethoxyphenyl)-1-oxo-2-propenyl]amino]benzamide], the inhibition at 10 µM in the data set on rat mesangial cell line [1] (setting [5]) is approximately 13%. The inhibition at 30 µM in the data set with rat mesangial cell line [1] (setting [3]) turned out to be 20%. Further, the inhibition at 100 µM in the data set on rat mesangial cell line [1] (setting [4]) turned out to be 36%. Moreover, in the data set with rat mesangial cell line [1], the Collagen synthesis result is “<FT11”. Besides, the “Effect on mesangial cell appearance” value in the data set on rat mesangial cell line [2] (@ 100 μM) is “sparse @”.

Turning to `COc1ccc(/C=C/C(=O)Nc2ccccc2)cc1OC` [Analogue 13, (E)-[3-(3,4-Dimethoxyphenyl)-1-oxo-2-propenyl]aminobenzene], the inhibition at 30 µM in the data set with rat mesangial cell line [1] (setting [3]) was approximately 20%. Further, the inhibition at 100 µM in the data set with rat mesangial cell line [1] (setting [4]) was approximately 55%. In addition, the Collagen synthesis entry in the data set with rat mesangial cell line [1] was “<FT11”. Besides, the “Effect on mesangial cell appearance” value with rat mesangial cell line [2] (@ 100 μM) is listed as “sparse @”.

`COc1ccc(/C=C/C(=O)Nc2ccc(C(=O)O)cc2)cc1OC` [Analogue 14, (E)-4-[[3-(3,4-Dimethoxyphenyl)-1-oxo-2-propenyl]amino]benzoic acid]: the inhibition at 100 µM in the data set with rat mesangial cell line [1] (setting [4]) is approximately 30%. Also, the Collagen synthesis entry in the data set on rat mesangial cell line [1] is on record as “<FT11”.

Turning to `C#CCNC(=O)c1ccccc1NC(=O)/C=C/c1ccc(OC)c(OC)c1` [Analogue 15, (E)-2-[[3-(3,4-Dimethoxyphenyl)-1-oxo-2-propenyl]amino]-N-propargylbenzamide], the inhibition at 10 µM in the data set on rat mesangial cell line [1] (setting [5]) was approximately 24%. Further, the inhibition at 30 µM in the data set on rat mesangial cell line [1] (setting [3]) is 36%. The inhibition at 100 µM with rat mesangial cell line [1] (setting [4]) was 75%. Besides, the Collagen synthesis entry in the data set with rat mesangial cell line [1] is given as “<FT11”. For the same molecule, the “Effect on mesangial cell appearance” value with rat mesangial cell line [2] (@ 30 μM) and with rat mesangial cell line [2] (@ 100 μM) was “sparse @ 30” in each case.

As to `CCC#CCOc1cc(/C=C/C(=O)Nc2ccccc2C(=O)O)ccc1OC` [Analogue 19], the “Mesangial Cell Assay TGF-β % reduction of TGF-β stimulation_proline inc.” value in the data set on rat mesangial cell line [1] (@ 10 μM, 5 ng/mL TGF-β1, 44 h) is recorded as approximately 80% @ 10; in the data set on rat mesangial cell line [1] (@ 30 μM, 5 ng/mL TGF-β1, 44 h) it was 100% @ 30. In the data set on rat mesangial cell line [1], the Collagen synthesis entry is given as “>FT11”.

For `COc1cc(/C=C/C(=O)Nc2ccccc2C(=O)O)ccc1OCc1cn(CC(=O)Nc2ccccc2)nn1` [Analogue 20, (E)-2-[[3-(3-Methoxy-4-((1-(2-oxo-2-(phenylamino)ethyl)-1H-1,2,3-triazol-4-yl)methoxy)phenyl)-1-oxo-2-propenyl]amino]benzoic acid], in the data set with rat mesangial cell line [1] (setting [5]), the inhibition at 10 µM was 30%. In addition, the inhibition at 30 µM with rat mesangial cell line [1] (setting [3]) stood at 50%. Besides, the inhibition at 100 µM in the data set on rat mesangial cell line [1] (setting [4]) turned out to be 90%. The Collagen synthesis result with rat mesangial cell line [1] was “=FT11”. For the same molecule, in the data set on rat mesangial cell line [2] (@ 100 μM), the “Effect on mesangial cell appearance” value is reported as “dead”.

On to `CC#CCOc1ccc(/C=C/C(=O)Nc2ccccc2C(=O)O)cc1OC` [Analogue 22, (E)-2-[[3-(4-(But-2-ynyloxy)-3-methoxyphenyl)-1-oxo-2-propenyl]amino]benzoic acid], for which the inhibition at 3 µM in the data set with rat mesangial cell line [1] (Rattus norvegicus, Mesangial cell, @ 3 μM, 5 ng/mL TGF-β1, 44 h, read-out: Mesangial Cell Assay TGF-β % reduction of TGF-β stimulation_proline inc.) was approximately 37%. Besides, the inhibition at 10 µM in the data set on rat mesangial cell line [1] (setting [5]) turned out to be 56%. Besides, the inhibition at 30 µM in the data set on rat mesangial cell line [1] (setting [3]) was approximately 70%. Also, in the data set on rat mesangial cell line [1], the Collagen synthesis entry was “=FT11”. For the same molecule, in the data set on rat mesangial cell line [2] (@ 100 μM), the “Effect on mesangial cell appearance” value is recorded as “dead”.

For `COc1ccc(/C=C/C(=O)Nc2ccccc2C(=O)NCc2cn(CC(=O)Nc3ccccc3)nn2)cc1OC` [Analogue 32, (E)-2-(3-(3,4-Dimethoxyphenyl)acrylamido)-N-((1-(2-oxo-2-(phenylamino)ethyl)-1H-1,2,3-triazol-4-yl)methyl)benzamide], the inhibition at 10 µM with rat mesangial cell line [1] (setting [5]) is approximately 26%. Also, the inhibition at 30 µM in the data set with rat mesangial cell line [1] (setting [3]) came to 62%. In addition, in the data set with rat mesangial cell line [1], the Collagen synthesis entry was “Toxic”. In the data set with rat mesangial cell line [2] (no concentration stated), the “Effect on mesangial cell appearance” value is recorded as “Dead”.

On to `COc1cc(/C=C/C(=O)Nc2ccccc2C(=O)O)ccc1OCc1ccccc1` [Analogue 43, (E)-2-[[3-(4-Benzyloxy-3-methoxyphenyl)-1-oxo-2-propenyl]amino]benzoic acid], for which the inhibition at 10 µM with rat mesangial cell line [1] (setting [5]) was 48%. The inhibition at 30 µM in the data set with rat mesangial cell line [1] (setting [3]) was 70%. For the same molecule, the “Effect on mesangial cell appearance” value with rat mesangial cell line [2] (@ 30 μM) and in the data set on rat mesangial cell line [2] (@ 100 μM) was “Sick @” each time.

`COc1cc(/C=C/C(=O)Nc2ccccc2C(=O)O)ccc1OCc1ccc2ccccc2c1` [Analogue 44, (E)-2-[[3-(3-Methoxy-4-(naphth-2-ylmethoxy)phenyl)-1-oxo-2-propenyl]amino]benzoic acid]: the Collagen synthesis result in the data set on rat mesangial cell line [1] is “Toxic”. Further, the “Effect on mesangial cell appearance” value in the data set with rat mesangial cell line [2] (@ all concentrations) is “Cells damaged @”.

With `COc1ccc(/C=C/C(=O)Nc2ccccc2C(=O)O)cn1` [Analogue 46, (E)-2-[[3-(6-Methoxypyridin-3-yl)-1-oxo-2-propenyl]amino]benzoic acid], the melting point is 209 to 211 °C. The Collagen synthesis entry in the data set with rat mesangial cell line [1] was “<<FT11”.

Consider `COc1cc(/C=C/C(=O)Nc2ccccc2C(=O)O)ccc1OCC(=O)C12CC3CC(CC(C3)C1)C2` [Analogue 47], for which the melting point was 112 to 114 °C.

With `COc1cc(/C=C/C(=O)Nc2ccccc2C(=O)O)ccc1OCCN1CCOCC1` [Analogue 48, (E)-2-[[3-(3-Methoxy-4-(2-morpholinoethoxy)phenyl)-1-oxo-2-propenyl]amino]benzoic acid], the melting point lay within 195 to 201 °C.

With `COc1cc(/C=C/C(=O)Nc2ccccc2C(=O)O)ccc1OCc1cccnc1` [Analogue 49, (E)-2-[[3-(3-Methoxy-4-(pyridin-3-ylmethoxy)phenyl)-1-oxo-2-propenyl]amino]benzoic acid], the melting point fell in the range of 245 to 251 °C.

`COc1ccc(/C=C/C(=O)Nc2ccccc2C(=O)O)cc1OCc1c(C)noc1C` [Analogue 50, (E)-2-[[3-((3-(3,5-Dimethylisoxazol-4-yl)methoxy)-4-methoxyphenyl)-1-oxo-2-propenyl]amino]benzoic acid]: the melting point fell in the range of 227 to 229 °C.

On to `CCN(CC)Cc1cc(/C=C/C(=O)Nc2ccccc2C(=O)O)ccc1OC` [Analogue 51, (E)-2-[[3-(3-((Diethylamino)methyl)-4-methoxyphenyl)-1-oxo-2-propenyl]amino]benzoic acid], for which the melting point was in the range of 202 to 205 °C.

A word on the melting point: it is the temperature of the solid-liquid transition.
